Structures are written as SMILES.

The nature of the test: Nicotinic acetylcholine receptor binding activity was determined by ability to displace [125I]alpha-BgT binding to rat brain membrane.
As to `CN1CC[C@@H](Oc2cccnc2)C1` [3-((R)-1-Methyl-pyrrolidin-3-yloxy)-pyridine], the Ki is > 10 µM.
The same measure for `CN1CC[C@H](Oc2cccnc2)C1` [3-((S)-1-Methyl-pyrrolidin-3-yloxy)-pyridine]: > 10 µM; for `c1ncc(OC[C@@H]2CCN2)cn1` [5-((S)-1-Azetidin-2-ylmethoxy)-pyrimidine]: > 10 µM; for `CN1CC[C@H]1COc1cncnc1` [5-((S)-1-Methyl-azetidin-2-ylmethoxy)-pyrimidine]: > 10 µM.

The Ki is a measure of affinity in units of concentration, obtained from inhibition or displacement. High values mean a looser hold on the target, low ones a stronger hold on the target.

The values are drawn from BindingDB's records for doi:10.1016/s0960-894x(99)00462-x (Abbott Laboratories, 1999).
